Like-named read-outs stand apart in the source and are kept apart here. Each block holds one molecule with its values, some of them ahead of it. Square brackets hold non-standard residues; d marks the D form. Peptide text beside a SMILES is read from it. * marks the point of attachment. X1 = CN1/C(=C/C=C/C=C/C2=[N+](CCCCCC(=O)*)c3ccc(S(=O)(=O)[O-])cc3C2(C)C)C(C)(C)c2cc(S(=O)(=O)O)ccc21; 1Nal = N[C@@H](Cc1cccc2ccccc12)C(=O)O; X2 = O=C(c1ccc2cc(F)ccc2c1)*; Octanoyl = CCCCCCCC(=O)*; Dap = NC[C@H](N)C(=O)O; Inp = O=C(O)C1CCNCC1
How the values were obtained:
[1] = molecular target: T1, hGOAT (Homo sapiens, UniProt Q96T53); experiment: hGOAT inhibition assay (octanoylation of GSSFLCAcDan by Sf9 membrane fraction expressing hGOAT, HPLC fluorescence); type: biochemical; conditions: read-out: IC50 against hGOAT
T1 construct: 3xHA (C); FLAG (C); His6 (C); made in house; host or cells: Sf9 insect cells (baculovirus), crude membrane fraction
T1 sequence (Q96T53 1-435): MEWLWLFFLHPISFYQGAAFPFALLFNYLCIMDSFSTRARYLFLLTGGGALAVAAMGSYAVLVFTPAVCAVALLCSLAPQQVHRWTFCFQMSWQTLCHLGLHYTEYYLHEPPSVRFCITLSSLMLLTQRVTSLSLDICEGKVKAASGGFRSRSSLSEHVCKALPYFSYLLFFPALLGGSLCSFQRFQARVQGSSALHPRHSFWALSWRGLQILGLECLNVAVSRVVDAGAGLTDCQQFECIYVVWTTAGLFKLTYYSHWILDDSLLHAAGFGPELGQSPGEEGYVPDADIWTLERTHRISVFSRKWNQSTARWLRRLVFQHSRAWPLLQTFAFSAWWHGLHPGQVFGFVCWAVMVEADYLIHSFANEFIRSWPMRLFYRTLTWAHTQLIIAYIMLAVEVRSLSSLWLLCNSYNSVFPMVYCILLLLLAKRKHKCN
Experimental: Assays were performed using previously reported protocols,[57],[58] as described in the Supporting Information. […]
hGOAT inhibition assays. Assays were performed using previously reported protocols.2-3 For each assay, membrane fraction from Sf9 cells expressing hGOAT was thawed on ice and homogenized by passage through an 18-gauge needle 10 times. Assays were performed with 50 µg of membrane protein, as determined by Bradford assay. Membrane fraction was pre-incubated with 1 µM methyl […]
arachidonyl fluorophosphonate (MAFP) and unlabeled peptide inhibitor or vehicle as indicated in 50 mM HEPES pH 7.0 for 30 minutes at room temperature prior to reaction initiation.4 All reactions were initiated by the addition of 1.5 µM GSSFLCAcDan and 300 µM octanoyl CoA.
Reactions were incubated for 30 minutes at room temperature under foil. All assays were stopped with the addition of 50 µL of 20% acetic acid in isopropanol, and solutions were clarified by protein precipitation with 16.7 µL of 20% trichloroacetic acid, followed by centrifugation (1,000 x g, 2 minutes). The supernatant was then analyzed using reverse-phase HPLC with fluorescence detection as previously described.2-3 Peak integrations for both substrate and product peaks were calculated using Chemstation for LC (Agilent Technologies). Data reported are the average of three independent determinations, with error reported as standard deviation.
For determination of IC50 values, the percent activity at each inhibitor concentration was calculated from HPLC integration data using equations 1 and 2: To determine an IC50 value for a given inhibitor, the plot of % activity versus [inhibitor] was fit to equation 3, with % activity0 denoting hGOAT activity in the presence of the vehicle alone. All reported IC50 values represent the average of a minimum of three independent trials.
(1) % activity = % peptide acylation in presence of inhibitor
% peptide acylation in absence of inhibitor
(2) % peptide octanoylation = Fluorescence of acylated peptide
Total peptide fluorescence (acylated and non-acylated)
(3) % activity = % activity * (1- [inhibitor] )

[2] = molecular target: T2, GHSR (GHS-R1a) (Homo sapiens, UniProt Q92847); set-up: method as in Charron et al.[22]; conditions: ref Charron et al.[22]; read-out: IC50 against GHSR; cited from earlier work
T2 construct: expressed in transfected cells; host or cells: HEK 293 cells transfected with GHS-R1a (membrane suspension)
Target sequence in this assay (Q92847 whole entry, species assumed): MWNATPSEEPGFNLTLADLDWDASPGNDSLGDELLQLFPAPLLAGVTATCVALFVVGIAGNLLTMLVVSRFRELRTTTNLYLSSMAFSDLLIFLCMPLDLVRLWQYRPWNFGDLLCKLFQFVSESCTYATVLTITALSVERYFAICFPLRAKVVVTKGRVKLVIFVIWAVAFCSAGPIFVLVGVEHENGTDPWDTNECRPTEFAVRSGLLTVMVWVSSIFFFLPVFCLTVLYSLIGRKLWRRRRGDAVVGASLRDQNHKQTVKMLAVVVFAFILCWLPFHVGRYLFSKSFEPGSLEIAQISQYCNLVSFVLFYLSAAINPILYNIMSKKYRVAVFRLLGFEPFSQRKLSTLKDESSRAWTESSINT

[3] = molecular target: human ghrelin O-acyltransferase (hGOAT) of the hGOAT inhibition assays (human) (UniProt Q96T53)
[4] = molecular target: T2, GHSR (GHS-R1a); experiment: biochemical; type: binding; conditions: for IC50: lower limit from test at 100 µM, read-out: IC50 against GHSR
Experimental: Peptide binding affinity for the ghrelin receptor was determined using a competitive radioligand-displacement binding assay,[22] with details provided in the Supporting Information. […]
GHSR receptor binding assays. Peptide binding affinity for the ghrelin receptor was determined using a competitive radioligand-displacement binding assay.1 Assays were performed using GHS-R1a transfected HEK 293 cells as the receptor source and human His[125I]-ghrelin(1−28) (PerkinElmer Inc. NEX388010UC ) as the radioligand. Human ghrelin(1−28) was used as a reference to ensure the validity of the results. A suspension of membrane from HEK 293/GHS-R1a cells (100,000 cells per assay tube) were incubated with ghrelin(1−8) peptide analogues (at […]
ghrelin (15 pM per assay tube) in binding buffer (25 mM HEPES, 5 mM magnesium chloride, 1 mM calcium chloride, 2.5 mM EDTA, and 0.4% BSA, pH 7.4). The resulting suspension was incubated for 20 min under shaking (550 rpm) at 37 °C. Unbound [ 125I]-ghrelin was removed and the amount of [ 125I]-ghrelin bound to the membranes was measured by γ counter. IC 50 values were determined by nonlinear regression analysis to fit a four-parameter dose−response curve using Prism 6 (version 6.0c). All binding assays were performed in triplicate. […]

[5] = molecular target: T3, human ghrelin O-acyltransferase (hGOAT) of the hGOAT inhibition assays (human, UniProt Q96T53 1-435); experiment: cell-based or functional assay
T3 sequence (looked up): T1 sequence (Q96T53 1-435)

[6] = average of three independent trials ± one standard deviation

Molecule: ligand 2, H-GS-(C8-Dap)-FLSPY-NH2 (peptide)
inhibition of hGOAT activity (IC50 against hGOAT) [3]: 64 nM

Molecule: CCCCCCCC(=O)NC[C@H](NC(=O)[C@H](CO)NC(=O)CN)C(=O)N[C@@H](Cc1ccccc1)C(=O)N[C@@H](CC(C)C)C(=O)N[C@@H](CO)C(=O)N1CCC[C@H]1C(=O)N[C@@H](Cc1ccc(O)cc1)C(N)=O [ligand 2, H-GS-(C8-Dap)-FLSPY-NH2] (H-GS[Dap](Octanoyl)FLSPY-NH2)
IC50 [1, 6]: 64 ± 21 nM
IC50 [2]: 65 nM

Molecule: ligand 3, H-GS-(6FN-Dap)-FLSPY-NH2 (peptide)
inhibition of hGOAT activity (IC50 against hGOAT) [3]: > 100000 nM

Molecule: CC(C)C[C@H](NC(=O)[C@H](Cc1ccccc1)NC(=O)[C@H](CN)NC(=O)[C@H](CO)NC(=O)C1CCNCC1)C(=O)N[C@@H](CO)C(=O)N1CCC[C@H]1C(=O)N[C@@H](Cc1ccc(O)cc1)C(N)=O [ligand 5, H-Inp-S-Dap-FLSPY-NH2] (HELM PEPTIDE1{[O=C(C1CCNCC1)[*:2]].S.[NC[C@H](N[*:1])C(=O)[*:2]].F.L.S.P.Y.[am]}$$$$V2.0)
IC50 [4]: ≥ 100000 nM
IC50 [1]: > 100000 nM

Molecule: CC(C)C[C@H](NC(=O)[C@H](Cc1ccccc1)NC(=O)[C@H](CN)NC(=O)[C@H](CO)NC(=O)C(C)(C)N)C(=O)N[C@@H](CO)C(=O)N1CCC[C@H]1C(=O)N[C@@H](Cc1ccc(O)cc1)C(N)=O [ligand 4, H-Aib-S-Dap-FLSPY-NH2] (HELM PEPTIDE1{[Aib].S.[NC[C@H](N[*:1])C(=O)[*:2]].F.L.S.P.Y.[am]}$$$$V2.0)
IC50 [4]: ≥ 100000 nM
IC50 [1]: > 100000 nM

Molecule: CC(C)C[C@H](NC(=O)[C@H](Cc1ccccc1)NC(=O)[C@H](CNC(=O)c1ccc2cc(F)ccc2c1)NC(=O)[C@H](CO)NC(=O)CN)C(=O)N[C@@H](CO)C(=O)N1CCC[C@H]1C(=O)N[C@@H](Cc1ccc(O)cc1)C(N)=O [ligand 3, H-GS-(6FN-Dap)-FLSPY-NH2] (H-GS[Dap](X2)FLSPY-NH2)
selectivity for GHSR binding over GOAT ([4]; from IC50 values of Table 1): > 100 fold
IC50 [1]: > 100000 nM
IC50 [2]: 9.9 nM

Molecule: CC(C)C[C@H](NC(=O)[C@H](Cc1ccccc1)NC(=O)[C@H](CN)NC(=O)[C@H](CO)NC(=O)CN)C(=O)N[C@@H](CO)C(=O)N1CCC[C@H]1C(=O)N[C@@H](Cc1ccc(O)cc1)C(N)=O [ligand 1, H-GS-Dap-FLSPY-NH2] (HELM PEPTIDE1{G.S.[NC[C@H](N[*:1])C(=O)[*:2]].F.L.S.P.Y.[am]}$$$$V2.0)
IC50 [4]: ≥ 100000 nM

Molecule: H-Inp-S-(6FN-Dap)-FLSPY-NH2 [ligand 7]
IC50 [2]: 9.6 nM

Molecule: H-Aib-S-(6FN-Dap)-FLSPY-NH2 [ligand 6]
IC50 [2]: 9.2 nM

Molecule: CCCCCCCC(=O)NC[C@H](NC(=O)[C@H](CO)NC(=O)CN)C(=O)N[C@@H](Cc1ccccc1)C(=O)N[C@@H](CC(C)C)C(=O)N[C@@H](CO)C(=O)N1CCC[C@H]1C(=O)N[C@@H](CCC(=O)O)C(N)=O [ligand 9, H-GS-(C8-Dap)-FLSPE-NH2]
IC50 [1, 6]: 580 ± 60 nM
IC50 [2]: 200 nM

Molecule: ligand 9, H-GS-(C8-Dap)-FLSPE-NH2 (peptide)
inhibition of hGOAT activity (IC50 against hGOAT) [3]: 580 nM

B1: ligand 1, H-GS-Dap-FLSPY-NH2 (peptide)
chain: GSXFLSPY
HELM: PEPTIDE1{G.S.[NC[C@H](N[*:1])C(=O)[*:2]].F.L.S.P.Y.[am]}$$$$V2.0
SMILES: CC(C)C[C@H](NC(=O)[C@H](Cc1ccccc1)NC(=O)[C@H](CN)NC(=O)[C@H](CO)NC(=O)CN)C(=O)N[C@@H](CO)C(=O)N1CCC[C@H]1C(=O)N[C@@H](Cc1ccc(O)cc1)C(N)=O
inhibition of hGOAT activity (IC50 against hGOAT) [5]: 104 nM

B3: ligand 4, H-Aib-S-Dap-FLSPY-NH2 (peptide)
chain: XSXFLSPY
HELM: PEPTIDE1{[Aib].S.[NC[C@H](N[*:1])C(=O)[*:2]].F.L.S.P.Y.[am]}$$$$V2.0
SMILES: CC(C)C[C@H](NC(=O)[C@H](Cc1ccccc1)NC(=O)[C@H](CN)NC(=O)[C@H](CO)NC(=O)C(C)(C)N)C(=O)N[C@@H](CO)C(=O)N1CCC[C@H]1C(=O)N[C@@H](Cc1ccc(O)cc1)C(N)=O
inhibition of hGOAT activity (IC50 against hGOAT) [5]: > 100000 nM

Now from value to molecule, other results behind:

IC50 [1, 6]: 59 ± 7 nM
Molecule: CCCCCCCC(=O)NC[C@H](NC(=O)[C@H](CO)NC(=O)CN)C(=O)N[C@@H](Cc1ccccc1)C(=O)N[C@@H](CC(C)C)C(=O)N[C@@H](CO)C(=O)N1CCC[C@H]1C(=O)N[C@@H](CC(N)=O)C(N)=O [ligand 10, H-GS-(C8-Dap)-FLSPN-NH2] (H-GS[Dap](Octanoyl)FLSPN-NH2)
IC50 [2]: 31.9 nM

inhibition of hGOAT activity (IC50 against hGOAT) [3]: 59 nM
Molecule: ligand 10, H-GS-(C8-Dap)-FLSPN-NH2 (peptide)

IC50 [1, 6]: 27 ± 8 nM
Molecule: CCCCCCCC(=O)NC[C@H](NC(=O)[C@H](CO)NC(=O)CN)C(=O)N[C@@H](Cc1ccccc1)C(=O)N[C@@H](CC(C)C)C(=O)N[C@@H](CO)C(=O)N1CCC[C@H]1C(=O)N[C@H](C(N)=O)[C@@H](C)O [ligand 11, H-GS-(C8-Dap)-FLSPT-NH2] (H-GS[Dap](Octanoyl)FLSPT-NH2)
IC50 [2]: 3.3 nM

IC50 [1, 6]: 17 ± 2 nM
Molecule: CC(C)C[C@H](NC(=O)[C@H](Cc1cccc2ccccc12)NC(=O)[C@H](CN)NC(=O)[C@H](CO)NC(=O)CN)C(=O)N[C@@H](CO)C(=O)N1CCC[C@H]1C(=O)N[C@H](C(=O)N[C@@H](CCCCNC(=O)CCCCC[N+]1=C(/C=C/C=C/C=C2/N(C)c3ccc(S(=O)(=O)O)cc3C2(C)C)C(C)(C)c2cc(S(=O)(=O)[O-])ccc21)C(N)=O)[C@@H](C)O [ligand 15, H-GS-Dap-Nal-1-LSPTK(SulfoCy5)-NH2] (H-GS[Dap][1Nal]LSPTK(X1)-NH2)

IC50 [1]: > 100000 nM
Molecule: CC(C)C[C@H](NC(=O)[C@H](Cc1cccc2ccccc12)NC(=O)[C@H](CNC(=O)c1ccc2cc(F)ccc2c1)NC(=O)[C@H](CO)NC(=O)C1CCNCC1)C(=O)N[C@@H](CO)C(=O)N1CCC[C@H]1C(=O)N[C@H](C(N)=O)[C@@H](C)O [ligand 14] (H-[Inp]S[Dap](X2)[1Nal]LSPT-NH2)

IC50 [4]: ≥ 100000 nM
Molecule: CC(C)C[C@H](NC(=O)[C@H](Cc1ccc2ccccc2c1)NC(=O)[C@H](CN)NC(=O)[C@H](CO)NC(=O)CN)C(=O)N[C@@H](CO)C(=O)N1CCC[C@H]1C(=O)N[C@H](C(N)=O)[C@@H](C)O [ligand 13, H-GS-Dap-Nal-2-LSPT-NH2] (HELM PEPTIDE1{G.S.[NC[C@H](N[*:1])C(=O)[*:2]].[O=C([C@H](Cc1ccc2ccccc2c1)N[*:1])[*:2]].L.S.P.T.[am]}$$$$V2.0)

inhibition of hGOAT activity (IC50 against hGOAT) [3]: 27 nM
Molecule: ligand 11, H-GS-(C8-Dap)-FLSPT-NH2 (peptide)

inhibition of hGOAT activity (IC50 against hGOAT) [5]: 16 nM
B2: ligand 13, H-GS-Dap-Nal-2-LSPT-NH2 (peptide)
chain: GSXXLSPT
HELM: PEPTIDE1{G.S.[NC[C@H](N[*:1])C(=O)[*:2]].[O=C([C@H](Cc1ccc2ccccc2c1)N[*:1])[*:2]].L.S.P.T.[am]}$$$$V2.0
SMILES: CC(C)C[C@H](NC(=O)[C@H](Cc1ccc2ccccc2c1)NC(=O)[C@H](CN)NC(=O)[C@H](CO)NC(=O)CN)C(=O)N[C@@H](CO)C(=O)N1CCC[C@H]1C(=O)N[C@H](C(N)=O)[C@@H](C)O

Reference: article PMC10442857, “Cellular Uptake of a Fluorescent Ligand Reveals Ghrelin O-Acyltransferase Interacts with Extracellular Peptides and Exhibits Unexpected Localization for a Secretory Pathway Enzyme” (ACS Chemical Biology, 2023)
